Measurements: PubChem BioAssay AID330 (DTP/NCI, 2004)
Values joined by “and” are separate entries in the source; they are usually repeats but may differ in a detail not shown here. Identical values can stand only once. Toxic doses and inconclusive results are not listed. The calls were made as follows: active = survival T/C of 150% or more; inactive = T/C below 125% in these data.

Tested on: P388 leukemia ip, CD2F1 mice, survival T/C
Test: NCI In Vivo Anticancer Drug Screen. Data for tumor model P388 Leukemia (intraperitoneal) in CD2F1 (CDF1) mice
Conditions: endpoint: median survival time, higher = longer survival
Summary of the method: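 Mice carrying the transplanted tumor received test compound or vehicle. Survival was recorded in each group, and the value is the treated-group measurement divided by that of the vehicle-treated control group.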

[1] = dose: 25.0 mg/kg/injection, schedule: Q01DX009 (ip), vehicle: Klucel (hydroxypropylcellulose) (HPC)
[2] = dose: 50.0 mg/kg/injection, schedule: Q01DX009 (ip), vehicle: Klucel (hydroxypropylcellulose) (HPC)
[3] = dose: 50.0 mg/kg/injection, schedule: Q01DX005 (ip), vehicle: Klucel (hydroxypropylcellulose) (HPC)
[4] = dose: 100.0 mg/kg/injection, schedule: Q01DX005 (ip), vehicle: Klucel (hydroxypropylcellulose) (HPC)
[5] = dose: 200.0 mg/kg/injection, schedule: Q01DX005 (ip), vehicle: Klucel (hydroxypropylcellulose) (HPC)
[6] = dose: 100.0 mg/kg/injection, schedule: Q01DX009 (ip), vehicle: saline with Tween-80
[7] = dose: 200.0 mg/kg/injection, schedule: Q01DX009 (ip), vehicle: saline with Tween-80
[8] = dose: 400.0 mg/kg/injection, schedule: Q01DX009 (ip), vehicle: saline with Tween-80
[9] = dose: 60.0 mg/kg/injection, schedule: Q01DX005 (ip), vehicle: saline with Tween-80
[10] = dose: 120.0 mg/kg/injection, schedule: Q01DX005 (ip), vehicle: saline with Tween-80
[11] = dose: 240.0 mg/kg/injection, schedule: Q01DX005 (ip), vehicle: saline with Tween-80
[12] = dose: 100.0 mg/kg/injection, schedule: Q01DX001 (ip), vehicle: saline
[13] = dose: 200.0 mg/kg/injection, schedule: Q01DX001 (ip), vehicle: saline
[14] = dose: 400.0 mg/kg/injection, schedule: Q01DX001 (ip), vehicle: saline
[15] = dose: 50.0 mg/kg/injection, schedule: Q01DX005 (ip), vehicle: saline with Tween-80
[16] = dose: 100.0 mg/kg/injection, schedule: Q01DX005 (ip), vehicle: saline with Tween-80
[17] = dose: 200.0 mg/kg/injection, schedule: Q01DX005 (ip), vehicle: saline with Tween-80
[18] = dose: 50.0 mg/kg/injection, schedule: Q01DX005 (ip), vehicle: saline
[19] = dose: 100.0 mg/kg/injection, schedule: Q01DX005 (ip), vehicle: saline
[20] = dose: 200.0 mg/kg/injection, schedule: Q01DX005 (ip), vehicle: saline

Measured: T/C

C[n+]1c2n(c3ccccc31)CCn1c-2[n+](C)c2ccccc21
inactive: dose: 12.5 mg/kg/injection, schedule: Q01DX009 (ip), vehicle: Klucel (hydroxypropylcellulose) (HPC) 100 % of control and 103 % of control and 117 % of control | [1] 102 % of control and 103 % of control (2×) | [2] 100 % of control and 120 % of control and 96 % of control

CCOC(=O)CCC1=C(C)c2cc3[n-]c(cc4nc(cc5[n-]c(cc1n2)c(CCC(=O)OCC)c5C)C=C4C)cc3C.[Cu+2]
inactive: [3] 101 % of control | [4] 97 % of control | [5] 100 % of control

COc1ccc(OC)c2c(Cl)cc(N)nc12
inactive: dose: 25.0 mg/kg/injection, schedule: Q01DX005 (ip), vehicle: Klucel (hydroxypropylcellulose) (HPC) 102 % of control | [3] 106 % of control | [4] 101 % of control | [5] 102 % of control

CN(C)c1ccc(C(=O)c2ccc(N(C)C)cc2)cc1
inactive: [6] 100 % of control | [7] 112 % of control | [8] 116 % of control

CO[C@@H]1[C@H](O)c2ccccc2N1C(C)=O
inactive: dose: 60.0 mg/kg/injection, schedule: Q01DX005 (ip), vehicle: saline 102 % of control | dose: 120.0 mg/kg/injection, schedule: Q01DX005 (ip), vehicle: saline 108 % of control | dose: 240.0 mg/kg/injection, schedule: Q01DX005 (ip), vehicle: saline 101 % of control

COc1nnnc2c1sc1ccccc12
inactive: dose: 100.0 mg/kg/injection, schedule: Q01DX001 (ip), vehicle: saline with Tween-80 101 % of control | dose: 200.0 mg/kg/injection, schedule: Q01DX001 (ip), vehicle: saline with Tween-80 104 % of control | dose: 400.0 mg/kg/injection, schedule: Q01DX001 (ip), vehicle: saline with Tween-80 102 % of control

C=C(C)c1c(C)nc2c(N)nc(N)[n+]([O-])c2[n+]1[O-]
inactive: dose: 37.5 mg/kg/injection, schedule: Q01DX009 (ip), vehicle: saline 108 % of control | dose: 75.0 mg/kg/injection, schedule: Q01DX009 (ip), vehicle: saline 118 % of control | dose: 150.0 mg/kg/injection, schedule: Q01DX009 (ip), vehicle: saline 101 % of control

CC1(C)CC(=O)C=C(NCCCCCCNC2=CC(=O)CC(C)(C)C2)C1
inactive: [2] 113 % of control | dose: 100.0 mg/kg/injection, schedule: Q01DX009 (ip), vehicle: Klucel (hydroxypropylcellulose) (HPC) 103 % of control | dose: 200.0 mg/kg/injection, schedule: Q01DX009 (ip), vehicle: Klucel (hydroxypropylcellulose) (HPC) 95 % of control

N#CC1=C(O)/C(=C\C=C\c2ccccc2)N(C(=O)c2ccccc2)C1=N
inactive: [9] 105 % of control | [10] 100 % of control | [11] 104 % of control

CCN(CC)P(c1ccccc1)N(CC)CC
inactive: [12] 101 % of control | [13] 111 % of control | [14] 104 % of control

O=C1CCCc2c1ccn2Cc1ccccc1
inactive: dose: 25.0 mg/kg/injection, schedule: Q04DX003 (ip), vehicle: Klucel (hydroxypropylcellulose) (HPC) 105 % of control | dose: 50.0 mg/kg/injection, schedule: Q04DX003 (ip), vehicle: Klucel (hydroxypropylcellulose) (HPC) 100 % of control | dose: 100.0 mg/kg/injection, schedule: Q04DX003 (ip), vehicle: Klucel (hydroxypropylcellulose) (HPC) 100 % of control | dose: 200.0 mg/kg/injection, schedule: Q04DX003 (ip), vehicle: Klucel (hydroxypropylcellulose) (HPC) 99 % of control

O=C(NN(Cc1ccccc1)S(=O)(=O)c1ccccc1)c1ccccc1
inactive: [15] 101 % of control | [16] 107 % of control | [17] 103 % of control

CC(C)NC(=O)OCc1c(COC(=O)NC(C)C)c(-c2ccc(Cl)c(Cl)c2)n2c1CSC2
inactive: dose: 25.0 mg/kg/injection, schedule: Q01DX005 (ip), vehicle: Klucel + Tween-80 91 % of control | dose: 50.0 mg/kg/injection, schedule: Q01DX005 (ip), vehicle: Klucel + Tween-80 88 % of control | dose: 100.0 mg/kg/injection, schedule: Q01DX005 (ip), vehicle: Klucel + Tween-80 87 % of control and 92 % of control | dose: 200.0 mg/kg/injection, schedule: Q01DX005 (ip), vehicle: Klucel + Tween-80 86 % of control and 88 % of control | dose: 400.0 mg/kg/injection, schedule: Q01DX005 (ip), vehicle: Klucel + Tween-80 89 % of control

N#Cc1cnc(N)c(C#N)c1
inactive: [1] 104 % of control | [2] 104 % of control

O=C(O)c1cc(Br)no1
inactive: dose: 50.0 mg/kg/injection, schedule: Q01DX009 (ip), vehicle: saline 95 % of control | dose: 100.0 mg/kg/injection, schedule: Q01DX009 (ip), vehicle: saline 90 % of control | dose: 200.0 mg/kg/injection, schedule: Q01DX009 (ip), vehicle: saline 89 % of control

NC(=S)N/N=C1\C(=O)NC(=O)C1c1ccccc1 (stereo not drawn)
inactive: [15] 115 % of control | [16] 105 % of control

O=C(O)CNCCCNCC(=O)O
inactive: [18] 94 % of control | [19] 88 % of control | [20] 99 % of control

Cc1ccc(C(=O)Nc2ccc(S(=O)(=O)O)c3cc(S(=O)(=O)O)cc(S(=O)(=O)O)c23)cc1NC(=O)c1cccc(NC(=O)Nc2cccc(C(=O)Nc3cc(C(=O)Nc4ccc(S(=O)(=O)O)c5cc(S(=O)(=O)O)cc(S(=O)(=O)O)c45)ccc3C)c2)c1
inactive: dose: 25.0 mg/kg/injection, schedule: Q01DX005 (ip), vehicle: saline 106 % of control | [18] 95 % of control

N#CC1Sc2ccccc2N1C(=O)OCc1ccccc1 (stereo not drawn)
inactive: [9] 93 % of control | [10] 92 % of control | [11] 91 % of control

COC(=O)C1=C(O)c2cc(C)c(C)c(C#N)c2NC(=O)C1
inactive: [9] 95 % of control | [10] 97 % of control | [11] 93 % of control

CCN(C)c1cc2c3c(c1)CCCN3CCC2
inactive: dose: 1.25 mg/kg/injection, schedule: Q01DX009 (ip), vehicle: saline 113 % of control | dose: 1.25 mg/kg/injection, schedule: Q04DX003 (ip), vehicle: saline 100 % of control | dose: 2.5 mg/kg/injection, schedule: Q01DX009 (ip), vehicle: saline 109 % of control | dose: 2.5 mg/kg/injection, schedule: Q04DX003 (ip), vehicle: saline 95 % of control | dose: 5.0 mg/kg/injection, schedule: Q01DX009 (ip), vehicle: saline 104 % of control | dose: 5.0 mg/kg/injection, schedule: Q04DX003 (ip), vehicle: saline 109 % of control

CNC(=O)OCC1(OC(=O)NC)OC(COC(=O)NC)(OC(=O)NC)C(OC(=O)NC)C1OC(=O)NC (stereo not drawn)
inactive: [18] 104 % of control | [19] 91 % of control | [20] 101 % of control

C=C1CC2(C=C(C)CCC2C(C)C)OC1=O (stereo not drawn)
inactive: [12] 101 % of control | [13] 101 % of control | [14] 101 % of control

CC1=C(C(N)=O)C(c2ccccc2Cl)NC(=S)N1 (stereo not drawn)
inactive: dose: 60.0 mg/kg/injection, schedule: Q01DX005 (ip), vehicle: Klucel (hydroxypropylcellulose) (HPC) 117 % of control | dose: 120.0 mg/kg/injection, schedule: Q01DX005 (ip), vehicle: Klucel (hydroxypropylcellulose) (HPC) 98 % of control | dose: 240.0 mg/kg/injection, schedule: Q01DX005 (ip), vehicle: Klucel (hydroxypropylcellulose) (HPC) 99 % of control

N#CC1C(c2ccc(Cl)cc2)C(C(N)=O)C(=O)NC1(O)c1ccccc1 (stereo not drawn)
inactive: dose: 100.0 mg/kg/injection, schedule: Q04DX002 (ip), vehicle: Klucel (hydroxypropylcellulose) (HPC) 100 % of control | dose: 200.0 mg/kg/injection, schedule: Q04DX002 (ip), vehicle: Klucel (hydroxypropylcellulose) (HPC) 99 % of control | dose: 400.0 mg/kg/injection, schedule: Q04DX002 (ip), vehicle: Klucel (hydroxypropylcellulose) (HPC) 98 % of control

Nc1n[nH]c(=S)n1-c1ccc(Cl)cc1
inactive: [6] 115 % of control | [7] 120 % of control | [8] 120 % of control

CCC1(C=O)NC(=O)NC1=O (stereo not drawn)
inactive: [15] 91 % of control | [16] 95 % of control | [17] 87 % of control

Cc1cc(NS(=O)(=O)c2ccc(N=c3c4ccccc4n(-c4ccccc4)c4ccccc34)cc2)no1
inactive: [15] 103 % of control | [16] 92 % of control | [17] 90 % of control
